Results on 10 molecules are retold here after patent US5734012A, “Cyclic motilin-like polypeptides with gastrointestinal motor stimulating activity” (Ohmeda Pharmaceutical Products Division Inc., priority 1996, dated 1998).

Each structure is given as a SMILES string. Positions of bridges follow the written chain, without caps; N, C: chain ends. Non-standard residues stand in square brackets, D forms with d. Residues, ends and D or L forms follow the SMILES beside them. *: point of attachment. X1 = C[N+](C)(C)[C@@H](Cc1ccccc1)C(=O)*; NMeF = CN[C@@H](Cc1ccccc1)C(=O)O

In data set [1] the target is T1, motilin receptor (Oryctolagus cuniculus, UniProt G1T803).
T1 construct: from tissue; host or cells: rabbit antral smooth muscle membranes
T1 sequence (G1T803 1-400): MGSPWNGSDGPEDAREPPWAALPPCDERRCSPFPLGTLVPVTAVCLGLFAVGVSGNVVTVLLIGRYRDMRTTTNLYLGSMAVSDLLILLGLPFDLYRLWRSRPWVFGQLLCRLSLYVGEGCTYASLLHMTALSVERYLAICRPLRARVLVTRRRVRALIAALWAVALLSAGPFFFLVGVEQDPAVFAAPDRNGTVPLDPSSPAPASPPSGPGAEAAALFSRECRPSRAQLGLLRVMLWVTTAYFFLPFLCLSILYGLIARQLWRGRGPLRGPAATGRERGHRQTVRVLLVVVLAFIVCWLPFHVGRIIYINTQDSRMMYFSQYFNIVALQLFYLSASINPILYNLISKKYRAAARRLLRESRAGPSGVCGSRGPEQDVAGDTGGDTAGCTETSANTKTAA
As to the kind of experiment: Motilin receptor binding affinity (displacement of [125I-Tyr7,Nle13]motilin(porcine)). Also on record: species or system rabbit. The note with it: negative logarithm of concentration displacing 50% of [125I-Tyr7,Nle13]motilin(porcine) bound to rabbit antral smooth muscle membranes; read-out: pIC50 (converted). The method, then:
The motilin receptor binding affinity of the peptides of this invention was determined by using the general procedure of Bormans, Peeters and Vantrappen, Regul. […] Fitting was performed using the iterative least-squares procedure of the SAS-software package (SAS Institute, Inc., Cary, N.C., USA).
For orientation: In a radioligand displacement assay an active substance lowers the binding of a labelled ligand.

Data set [2] concerns the target rabbit duodenal smooth muscle strip (Oryctolagus cuniculus, UniProt G1T803). Briefly: Rabbit duodenal smooth muscle strip tissue bath assay (contractility). It is filed as cell-based. The note with it: negative logarithm of dose giving 50% of maximal response to motilin; isotonic contraction of rabbit duodenum segments. How it is done: The experimental protocol consisted of an equilibration period of 1 hour; a challenge with 10^-4 M acetylcholine followed by a wash-out period; a cumulative dose-response curve of a compound with, at the end, the addition of 10^-7 M motilin; and finally 10^-4 M acetylcholine. If the final response to 10^-4 M acetylcholine differed by more than 5% from the initial response, the results were discarded.

Data set [3] is described as follows: In vitro stability testing in 2% hog kidney homogenate. It is filed as in vitro ADME. Particulars: pig, kidney or brush border membranes, pH 7. How it is done: Like most small linear polypeptides, motilin is believed to be metabolized by the brush border cells of the kidney. Therefore, kidney homogenate was chosen as the model system for assessing the relative in vivo biostability of the peptides of this invention. All peptides to be studied were incubated in hog kidney (Pel Freeze, Inc., Rogers, Ark.) (2% w/v; final volume=4 mls; buffer=HEPES pH 7.0) at 25° C. […] In order to determine suitable incubation times and sampling intervals, two experiments were conducted with each polypeptide. The first run served as a rough estimate of peptide stability. All sampling was performed in duplicate. Sample volume was 180 μl. Sample clean-up was performed by addition of 20 μl of 100% TCA (final volume=200 μl; final TCA concentration=10%). The sample was vortexed from 5 to 10 seconds to ensure equilibration, then centrifuged to spin out the precipitated proteins. Analysis was carried out on a Waters HPLC system with autoinjector, a 5 μVydac C-18 analytical column, and a Waters 481 UV detector set at 214 nm. Injection volume was 80 μl. Initial solvent conditions were 20% acetonitrile / 80% (0.1%) TFA in Milli-Q water with a 35 minute gradient running to 63% acetonitrile / 37% (0.1%) TFA at 1 ml/min. Polypeptide substrate and metabolite peaks were ratioed to the internal standard and the duplicate sample ratios were averaged. The average ratio for the peptide substrate was expressed as a percentage and plotted versus time. First-order kinetics was assumed for data treatment. The rate of disappearance of the substrate was calculated using the Enzfitter program (Biosoft). Relative half-lives were determined from the relationship: […]

For data set [4] the following is noted: in vivo; cited from earlier work.

A word on the pEC50: it is −log10 of the EC50, conventionally taken in molar units. A word on the half-life: it is how long it takes for the measured level to halve.

rabbit duodenal smooth muscle strip, sequence (G1T803 1-400): as above

As for `CC[C@H](C)[C@H](NC(=O)[C@@H]1CCCN1C(=O)[C@@H](NC(=O)[C@H](Cc1ccccc1)NC)C(C)C)C(=O)N[C@@H](Cc1ccccc1)C(=O)N[C@H](C(=O)N[C@@H](Cc1ccc(O)cc1)C(=O)NCC(=O)N[C@@H](CCC(=O)O)C(=O)N[C@H]1CC(=O)NCCCC[C@@H](C(N)=O)NC(=O)[C@H](CC(C)C)NC(=O)[C@H](CCCNC(=N)N)NC(=O)[C@H](C)NC1=O)[C@@H](C)O` [SEQ ID NO:17, cyclo^10,14 [N-MePhe^1,Asp^10,Ala^11,Leu^13,Lys^14]pMOT(1-14) amide] (H-[NMeF]VPIFTYGEDARLK-NH2; lactam 10-14), the IC50 in data set [1] is 0.575 nM. Moreover, the pEC50 in data set [2] came out at 7.95. This molecule also gave a half-life at 0.5 mg/ml in data set [3] of 31 min.

Take `CC[C@H](C)[C@H](NC(=O)[C@@H]1CCCN1C(=O)[C@@H](NC(=O)[C@H](Cc1ccccc1)[N+](C)(C)C)C(C)C)C(=O)N[C@@H](Cc1ccccc1)C(=O)N[C@H](C(=O)N[C@@H](Cc1ccc(O)cc1)C(=O)NCC(=O)N[C@@H](CCC(=O)O)C(=O)N[C@H]1CCC(=O)NCCCC[C@@H](C(=O)N[C@@H](CCCCN)C(N)=O)NC(=O)[C@H](CC(C)C)NC(=O)[C@@H](CCCNC(=N)N)NC(=O)[C@H](C)NC1=O)[C@@H](C)O` [SEQ ID NO:20, cyclo^10,14 [Me3 N^+ Phe^1,Glu^10,Ala^11,D-Arg^12,Leu^13,Lys^14,Lys^15]pMOT(1-15) amide] (X1-VPIFTYGEEA[dR]LKK-NH2; lactam 9-13): the IC50 in data set [1] was 1.55 nM. In data set [2], this molecule showed a negative-log EC50 (pEC50) of 7.34. The molecule also showed a half-life at 0.5 mg/ml in data set [3] of 49 min.

Turning to `CC[C@H](C)[C@H](NC(=O)[C@@H]1CCCN1C(=O)[C@@H](NC(=O)[C@H](Cc1ccccc1)NC)C(C)C)C(=O)N[C@@H](Cc1ccccc1)C(=O)N[C@H](C(=O)N[C@@H](Cc1ccc(O)cc1)C(=O)NCC(=O)N[C@@H](CCC(=O)O)C(=O)N[C@H]1CCC(=O)NCCCC[C@@H](C(=O)N[C@@H](CCCCN)C(N)=O)NC(=O)[C@H](CC(C)C)NC(=O)[C@@H](CCCNC(=N)N)NC(=O)[C@H](C)NC1=O)[C@@H](C)O` [SEQ ID NO:15, cyclo^10,14 [N-MePhe^1,Glu^10,Ala^11,D-Arg^12,Leu^13,Lys^14,Lys^15]pMOT(1-15) amide] (H-[NMeF]VPIFTYGEEA[dR]LKK-NH2; lactam 10-14), in data set [1], the IC50 was 1.02 nM. For the same molecule, the pEC50 in data set [2] was determined as 7.68. Besides, the half-life at 0.5 mg/ml in data set [3] came out at 39 min.

As for `CC[C@H](C)[C@H](NC(=O)[C@@H]1CCCN1C(=O)[C@@H](NC(=O)[C@H](Cc1ccccc1)[N+](C)(C)C)C(C)C)C(=O)N[C@@H](Cc1ccccc1)C(=O)N[C@H](C(=O)N[C@@H](Cc1ccc(O)cc1)C(=O)NCC(=O)N[C@@H](CCC(=O)O)C(=O)N[C@H]1CC(=O)NCCCC[C@@H](C(=O)N[C@@H](CCCCN)C(N)=O)NC(=O)[C@H](CC(C)C)NC(=O)[C@@H](CCCNC(=N)N)NC(=O)[C@H](C)NC1=O)[C@@H](C)O` [SEQ ID NO:19, cyclo^10,14 [ME3 N^+ Phe^1,Asp^10,Ala^11,D-Arg^12,Leu^13,Lys^14,Lys^15]pMOT(1-15) amide] (X1-VPIFTYGEDA[dR]LKK-NH2; lactam 9-13), the IC50 in data set [1] is 2.88 nM. Besides, in data set [2], the negative logarithm of the EC50 (pEC50) came out at 7.72. In addition, the half-life at 0.5 mg/ml in data set [3] was 85 min.

In the case of `CC[C@H](C)[C@H](NC(=O)[C@@H]1CCCN1C(=O)[C@@H](NC(=O)[C@H](Cc1ccccc1)NC)C(C)C)C(=O)N[C@@H](Cc1ccccc1)C(=O)N[C@H](C(=O)N[C@@H](Cc1ccc(O)cc1)C(=O)NCC(=O)N[C@@H](CCC(=O)O)C(=O)N[C@H]1CC(=O)NCCCC[C@@H](C(=O)N[C@@H](CCCCN)C(N)=O)NC(=O)[C@H](CC(C)C)NC(=O)[C@@H](CCCNC(=N)N)NC(=O)[C@H](C)NC1=O)[C@@H](C)O` [SEQ ID NO:12, cyclo^10,14 [N-MePhe^1,Asp^10,Ala^11,D-Arg^12,Leu^13,Lys^14,Lys^15]pMOT(1-15) amide] (H-[NMeF]VPIFTYGEDA[dR]LKK-NH2; lactam 10-14), the IC50 in data set [1] was 1.74 nM. Besides, in data set [2], the negative-log EC50 (pEC50) is recorded as 7.81. The molecule further came in with a half-life at 0.5 mg/ml in data set [3] of 16 min.

With `CC[C@H](C)[C@H](NC(=O)[C@@H]1CCCN1C(=O)[C@@H](NC(=O)[C@H](Cc1ccccc1)NC)C(C)C)C(=O)N[C@@H](Cc1ccccc1)C(=O)N[C@H](C(=O)N[C@@H](Cc1ccc(O)cc1)C(=O)NCC(=O)N[C@@H](CCC(=O)O)C(=O)N[C@H]1CCC(=O)NCCCC[C@@H](C(=O)N[C@@H](CCCCN)C(N)=O)NC(=O)[C@H](CC(C)C)NC(=O)[C@H](CCCNC(=N)N)NC(=O)[C@H](C)NC1=O)[C@@H](C)O` [SEQ ID NO:10, cyclo^10,14 [N-MePhe^1,Glu^10,Ala^11,Leu^13,Lys^14,Lys^15]pMOT(1-15) amide] (H-[NMeF]VPIFTYGEEARLKK-NH2; lactam 10-14), the IC50 in data set [1] is 0.631 nM. The same molecule gave a pEC50 in data set [2] of 7.96. The half-life at 0.5 mg/ml in data set [3] amounted to 21 min.

Turning to `CC[C@H](C)[C@H](NC(=O)[C@@H]1CCCN1C(=O)[C@@H](NC(=O)[C@H](Cc1ccccc1)[N+](C)(C)C)C(C)C)C(=O)N[C@@H](Cc1ccccc1)C(=O)N[C@H](C(=O)N[C@@H](Cc1ccc(O)cc1)C(=O)NCC(=O)N[C@@H](CCC(=O)O)C(=O)N[C@H]1CCC(=O)NCCCC[C@@H](C(=O)N[C@@H](CCCCN)C(N)=O)NC(=O)[C@H](CC(C)C)NC(=O)[C@H](CCCNC(=N)N)NC(=O)[C@H](C)NC1=O)[C@@H](C)O` [SEQ ID NO:21, cyclo^10,14 [Me3 N^+ Phe^1,Glu^10,Ala^11,Leu^13,Lys^14,Lys^15]pMOT(1-15) amide] (X1-VPIFTYGEEARLKK-NH2; lactam 9-13), the IC50 in data set [1] was 1.35 nM. In data set [2], this molecule registered a pEC50 of 7.76. Further, in data set [3], the half-life at 0.5 mg/ml is 267 min.

For the molecule `CC[C@H](C)[C@H](NC(=O)[C@@H]1CCCN1C(=O)[C@@H](NC(=O)[C@@H](N)Cc1ccccc1)C(C)C)C(=O)N[C@@H](Cc1ccccc1)C(=O)N[C@H](C(=O)N[C@@H](Cc1ccc(O)cc1)C(=O)NCC(=O)N[C@@H](CCC(=O)O)C(=O)N[C@@H](CC(C)C)C(=O)N[C@@H](CCC(N)=O)C(=O)N[C@@H](CCCNC(=N)N)C(=O)N[C@@H](CCSC)C(=O)N[C@@H](CCC(N)=O)C(=O)N[C@@H](CCC(=O)O)C(=O)N[C@@H](CCCCN)C(=O)N[C@@H](CCC(=O)O)C(=O)N[C@@H](CCCNC(=N)N)C(=O)N[C@@H](CC(N)=O)C(=O)N[C@@H](CCCCN)C(=O)NCC(=O)N[C@@H](CCC(N)=O)C(=O)O)[C@@H](C)O` [motilin], the “half-life (t1/2)” value in data set [4] is 4.5 min.

In the case of `CC[C@H](C)[C@H](NC(=O)[C@@H]1CCCN1C(=O)[C@@H](NC(=O)[C@H](Cc1ccccc1)NC)C(C)C)C(=O)N[C@@H](Cc1ccccc1)C(=O)N[C@H](C(=O)N[C@@H](Cc1ccc(O)cc1)C(=O)NCC(=O)N[C@@H](CCC(=O)O)C(=O)N[C@H]1CCC(=O)NCCCC[C@@H](C(N)=O)NC(=O)[C@H](CC(C)C)NC(=O)[C@H](CCCNC(=N)N)NC(=O)[C@H](CCC(N)=O)NC1=O)[C@@H](C)O` [SEQ ID NO:22, cyclo^10,14 [N-MePhe^1,Glu^10,Leu^13,Lys^14]pMOT(1-14) amide] (H-[NMeF]VPIFTYGEEQRLK-NH2; lactam 10-14), in data set [1], the IC50 is 0.912 nM. This molecule also registered a pEC50 in data set [2] of 8.73. The molecule also came in with a half-life at 0.5 mg/ml in data set [3] of 35 min.

In the case of `CC[C@H](C)[C@H](NC(=O)[C@@H]1CCCN1C(=O)[C@@H](NC(=O)[C@H](Cc1ccccc1)[N+](C)(C)C)C(C)C)C(=O)N[C@@H](Cc1ccccc1)C(=O)N[C@H](C(=O)N[C@@H](Cc1ccc(O)cc1)C(=O)NCC(=O)N[C@@H](CCC(=O)O)C(=O)N[C@H]1CC(=O)NCCCC[C@@H](C(=O)N[C@@H](CCCCN)C(N)=O)NC(=O)[C@H](CC(C)C)NC(=O)[C@H](CCCNC(=N)N)NC(=O)[C@H](C)NC1=O)[C@@H](C)O` [SEQ ID NO:18, cyclo^10,14 [Me3 N^+ Phe^1,Asp^10,Ala^11,Leu^13,Lys^14,Lys^15]pMOT(1-15) amide] (X1-VPIFTYGEDARLKK-NH2; lactam 9-13), in data set [1], the IC50 was 1.78 nM. In addition, the negative logarithm of the EC50 (pEC50) in data set [2] came out at 7.72. In addition, the half-life at 0.5 mg/ml in data set [3] came out at 413 min.
